Experimental data reported in patent US20060194740A1, “NOD1 as an anti-tumor agent” (priority 2005, published 2006).
Starred links: 1 amine or outer side, 2 acyl side, 3 side chain; linkers in the order of their positions; H or OH if unused. Non-standard residues stand in square brackets, D forms with d. Residues, ends and D or L forms follow the SMILES beside them. No end group written: not given here. *: point of attachment. mesoDAP = meso-diaminopimelic acid, O=C(O)[C@@H](CCC[C@H](N[*:1])C(=O)[*:2])N[*:3]; Diaminopimelic acid = diaminopimelic acid; Cbz = O=C(OCc1ccccc1)*; CH2F = FC*

Experiments:
[1] = tested on: MCF-7 C20 cells; assay: Propidium iodide exclusion cell death assay, Nod1-deficient MCF-7 C20 cells; assay type: cell-based, human
Protocol: Cell viability assays. […] Subsequently, cells were harvested, washed twice in FACS buffer (PBS containing 1% FCS and 0.1% NaN3) and resuspended in propidium iodide (PI)—containing FACS buffer (4 ug/ml). The extent of cell death was analyzed with a FACSCalibur flow cytometer (Becton Dickinson, Mountain View, Calif.). DAPI staining: MCF-7 cells were plated in chamber slides, and stimulated for 2 days. Cells were washed with PBS and apoptotic nuclei were stained with 1 μg/ml DAPI (Sigma Chemical Co., St. Louis, Mo.). Cells were fixed in 4% paraformaldehyde and examined by fluorescence microscopy.
(§1) To further investigate the role of Nod1 in apoptosis, a variety of cell types were incubated with the Nod1 ligand, […] (γTriDAP), which specifically activates Nod1. The cell types tested included the parental MCF-7 cell line, the Nod1-deficient MCF-7C20 clone, and a cell line engineered to contain an additional human Nod1 allele (MCF-7Nod1) so that Nod1 was over-expressed. To determine whether the resistance of C20 cells to γTriDAP-induced apoptosis resulted from the absence of Nod1, human Nod1 was stably expressed in MCF-7 C20 cells to produce Nod1-sufficient C20 cells (C20/Nod1). As another control, the parental MCF-7 cell line was transfected with an empty retroviral vector to generate MCF-7 Blasto cells. Cells were treated with γTriDAP in the presence or absence of cycloheximide (CHX) and cell death was then determined by propidium iodide staining and flow cytometry.

[2] = tested on: MCF-7 cells; assay: Propidium iodide exclusion cell death assay, wild-type (parental/Blasto) MCF-7 cells; assay type: cell-based, human; settings: for sensitivity to cell death: parental versus C20 cells (data not shown)
Protocol: (§2) Cell viability assays. Propidium iodide exclusion assay: Cells were stimulated as indicated for 2 days. Subsequently, cells were harvested, washed twice in FACS buffer (PBS containing 1% FCS and 0.1% NaN3) and resuspended in propidium iodide (PI)—containing FACS buffer (4 ug/ml). The extent of cell death was analyzed with a FACSCalibur flow cytometer (Becton Dickinson, Mountain View, Calif.). DAPI staining: MCF-7 cells were plated in chamber slides, and stimulated for 2 days. Cells were washed with PBS and apoptotic nuclei were stained with 1 μg/ml DAPI (Sigma Chemical Co., St. Louis, Mo.). Cells were fixed in 4% paraformaldehyde and examined by fluorescence microscopy.
as §1

[3] = tested on: MCF-7 Nod1 cells; assay: Propidium iodide exclusion cell death assay, MCF-7 Nod1 cells over-expressing Nod1; assay type: cell-based, human; settings: for effect on γTriDAP-induced apoptosis: inhibitor 100 uM, 30 min prior to γTriDAP/CHX for 48 h (FIG. 6A); for effect on γTriDAP-induced cell death: caspase inhibitor 50 uM, 30 min before γTriDAP/CHX for 48 h (FIG. 2D)
Protocol: as §2, §1

[4] = tested on: MCF-7 C20/Nod1 cells; assay: Propidium iodide exclusion apoptosis assay, MCF-7 C20/Nod1 cells; assay type: cell-based, human; settings: γTriDAP/CHX (FIG. 12A)
Protocol: as §2, §1
To determine whether the presence of estrogens modulates Nod1-induced apoptotic pathway, cells were cultured in medium containing charcoal-treated serum.

[5] = tested on: poly(ADP-ribose)polymerase (PARP) and capases 6, 7, 8 and 9; assay: Western blot of PARP and caspase cleavage in MCF-7 cells; assay type: cell-based, human; settings: 24 h (FIG. 3)
Protocol: (§3) Western blot analysis and immunoprecipitation. Cells were washed extensively and lysed using lysis buffer containing 50 mM Hepes, 100 mM NaCl, 2 mM EDTA, 10% glycerol, 1% Nonidet P-40, 14 μM pepstatin A, 100 uM leupeptin, 3 mM benzamidine, 1 mM PMSF, 1 mM sodium pyrophosphate, 10 mM sodium orthovanadate, 100 U/ml aprotinin, and 100 mM sodium fluoride. After incubation for 30 min on ice, cell lysates were centrifuged (14000 rpm, 10 min, 4° C.) and the supernatants were recovered. For immunoprecipitation, cell lysates were mixed with 5 μg of antibody for 3 hour at 4° C. under constant agitation. Immune complexes were allowed to bind to 20 μl protein A-Sepharose beads overnight, beads were washed three times with lysis buffer. Immunoprecipitates were separated on SDS-PAGE and transferred to PVDF membranes.
Further confirmation that γTriDAP induces apoptosis was obtained using two broad spectrum caspase inhibitors, z-VAD-FMK and Boc-D-FMK. Both z-VAD-FMK and Boc-D-FMK abrogated γTriDAP-induced cell death (FIG. 2D).

[6] = tested on: JNK; assay: JNK phosphorylation in MCF-7 RIP2 transfectants; assay type: cell-based, human; settings: γTriDAP with cycloheximide for 2 h in wild type RIP2 or RIP2 KD cells (FIG. 7C)
Protocol: as §3
The effect of RIP2 expression on γTriDAP-induced JNK phosphorylation was also examined (FIG. 7C).

[7] = tested on: MCF-7C20 cells; assay: IL-8 production, MCF-7C20 cells; assay type: cell-based, human; settings: MCF-7C20 cells (data not shown)
[8] = tested on: MCF7-C20Nod1 cells; assay: IL-8 production, MCF7-C20Nod1 cells; assay type: cell-based, human; settings: wild-type Nod1 expressed in MCF7-C20Nod1 cells (FIG. 5C)
[9] = biological target: Myc-NOD1 (human) (UniProt Q9Y239); assay: cell-based or functional assay
[10] = biological target: endogenous NOD1 protein of parental MCF-7 cells (human) (UniProt Q9Y239); assay: cell-based or functional assay
[11] = biological target: human Nod1 stably expressed in cell lines (human) (UniProt Q9Y239); assay: cell-based or functional assay
[12] = tested on: SK-BR3; assay: Apoptosis by PI staining, SK-BR3 cells stably expressing Nod1; assay type: cell-based, human; settings: SKBR3 cells; αTriDAP substituted for γTriDAP, with TNFα and cycloheximide (FIG. 9B)
Protocol: as §2
To determine if Nod1-dependent apoptosis occurs in other human cell lines, a series of epithelial cell lines were examined where Nod1 was stably expressed to enhance sensitivity to activation of the Nod1 pathway. Cells were treated with TNFα (T) and γTriDAP (γ) in the presence or absence of CHX (C) and monitored for viability by PI staining as a measure of apoptosis (Table 1).

[13] = tested on: MCF-7 C20 cells; assay: 3H-thymidine proliferation assay, MCF-7 C20 cells; assay type: cell-based, human; settings: tamoxifen added in the culture medium (data not shown)
Protocol: Retroviral transfections. The various genes used in this study were cloned into pMSCV-Blasto, pBabe-Puro or pBabe-Neo retroviral vectors. MCF-7 cells were stably transfected using available procedures. Briefly, amphotropic 293 cells were transfected with retroviral vectors encoding selected Nod1, Nod2 and other proteins. Twenty-four hours post-transfection, cells were incubated at 32° C. overnight to produce viral particles. Target cells were infected the next day with virus-containing 293 cell supernatants containing recombinant retroviral particles. Cells were selected with 10 μg/ml blasticidin S (Calbiochem EMD Biosciences Inc., San Diego, Calif.), 500 μg/ml […] (Invitrogen, Carlsbad, Calif.) or 5 μg/ml puromycin (Calbiochem). The expression of all constructs was confirmed by Western blot analysis. To determine the effects of 17β-estradiol (Calbiochem), cells were cultured in phenol red-free DMEM supplemented with […]. Cells were seeded in 96 well plates with various concentration of 17β-estradiol (E2) for 24 h and pulsed with ^3H-thymidine (1 μCi/well, MP Biomedicals, Irvine, Calif.). Cells were harvested on glass fiber filters and radioactivity measured by liquid scintillation. […]

[14] = tested on: MCF-7 Nod2 cells; assay: Propidium iodide apoptosis assay, MCF-7 Nod2 cells; assay type: cell-based, human; settings: MDP plus CHX, 48 h (FIG. 5A)
Protocol: as §2
(§4) Experiments were also performed to ascertain whether activation of Nod2 by its specific activator, muramyl dipeptide (MDP), would initiate apoptosis in parental MCF-7 cells or in MCF-7 cells over-expressing Nod2 (MCF-7 Nod2). Thus, γTriDAP or MDP were added to each of these lines and apoptosis (FIG. 5A) and IL-8 production (FIG. 5C) were measured. […] Expression of Nod1 and Nod2 in MCF-7 stable transfectants was confirmed by immunoblotting (FIG. 5B).

[15] = tested on: MCF-7 Nod2 cells; assay: IL-8 secretion ELISA, MCF-7 Nod2 cells; assay type: cell-based, human; settings: 24 h (FIG. 5C)
Protocol: IL-8 ELISA. Concentrations of IL-8 in the culture supernatants of transfected HeLa cells were measured by ELISA using 96-well Immunlon plates (Dynatech Laboratories, Chantilly, Va.). ELISA was performed using the mAb MAB208 for capture and a biotinylated polyclonal rabbit anti-human IL-8 Ab (R&D Systems, Minneapolis, Minn.) followed by streptavidin HRP for detection.
as §4

[16] = tested on: MCF-7 RIP2 KD cells; assay: Propidium iodide apoptosis assay, MCF-7 RIP2 KD cells; assay type: cell-based, human; settings: cells expressing RIP2 KD; 20 μg/ml, CHX, 48 hr (FIG. 13A)
Protocol: as §2
Several RIP2 mutants were stably expressed in MCF-7 cells to evaluate the role of the RIP2 kinase activity in γTriDAP-induced apoptosis. Expression of RIP2 lacking its CARD domain completely abrogated Nod1-induced cell death (FIG. 7A). […] Cells expressing wild type RIP2 and RIP2 KD constructs were sensitive to lower concentrations of γTriDAP and died faster than cells expressing only Nod1 (FIG. 13C) or than parental MCF-7Blasto cells (data not shown).

[17] = agent alone, wild type cells (FIG. 2A)

TNFα
TNFα-induced apoptosis ([1]; MCF-7 C20 versus parent MCF-7 cells, TNF 0-40 ng/ml, 20 h (FIG. 1C)): significantly more resistant

COc1cccc2c1C(=O)c1c(O)c3c(c(O)c1C2=O)C[C@@](O)(C(=O)CO)C[C@@H]3O[C@H]1C[C@H](N)[C@H](O)[C@H](C)O1 [doxirubicin]
sensitivity to cell death [2]: equally sensitive

D-Ala-L-Glu-Diaminopimelic acid ([dA]-Glu-[Diaminopimelic acid]; also: Glu gamma-carboxyl linked to DAP (γTriDAP))
cell death [2, 17]: No cell death | cell death ([2]; γTriDAP in the presence of cycloheximide, wild-type MCF-7, PI staining, flow cytometry (FIG. 2A)): about 25% | apoptosis ([1]; γTriDAP plus cycloheximide, MCF-7C20 without Nod1 expression): totally resistant | cell death ([3]; combination of cycloheximide and γTriDAP, 48 h treatment, MCF-7Nod1 cells): ~60% | γTriDAP-induced apoptosis ([4]; with steroids): 80% | γTriDAP-induced apoptosis ([4]; without steroids (charcoal-treated serum)): 10% | proteolytic cleavage of PARP and capases 6, 7, 8 and 9 [5]: resulted in proteolytic cleavage | phosphorylation of JNK [6]: induced phosphorylation of JNK | γTriDAP-induced IL-8 production [7]: inhibited | γTriDAP-induced IL-8 production [8]: restored

D-Ala-L-Glu-Diaminopimelic acid (γTriDAP) (peptide)
cell death by propidium iodide staining and flow cytometry; MCF-7Nod1 cells, γTriDAP with cycloheximide, 48 h [9]: 60% | cell death by propidium iodide staining and flow cytometry; wild-type MCF-7 cells, γTriDAP with cycloheximide [10]: 25% | γTriDAP-induced apoptosis; C20/Nod1 cells cultured with steroids [11]: 80% | γTriDAP-induced apoptosis; C20/Nod1 cells cultured without steroids [11]: 10%

C[C@@H]1C[C@@H]([C@H](O)CC2CC(=O)NC(=O)C2)C(=O)[C@@H](C)C1 [cycloheximide]
cell death [2, 17]: No cell death

αTriDAP: inactive control tri-peptide where mesoDAP was bound to Glu in the a position rather than in the γ position (Ala-Glu-[mesoDAP]; not fully specified (residue 1); also: DAP bound to Glu alpha-carboxyl (αTriDAP))
cell death ([2]; incubated with MCF-7 cells in the presence of cycloheximide (FIG. 2A)): did not induce cell death | proteolytic cleavage of PARP and capases 6, 7, 8 and 9 [5]: not | apoptosis [12]: reduced apoptosis

CC[C@@]1(O)C(=O)OCc2c1cc1n(c2=O)Cc2cc3ccccc3nc2-1 [camptothecin]
sensitivity to cell death [2]: equally sensitive

IETD
effect on γTriDAP-induced apoptosis [3]: marked inhibitory effects

COC(=O)CC(NC(=O)OC(C)(C)C)C(=O)CF [Boc-D-FMK]
effect on γTriDAP-induced cell death [3]: abrogated

COC(=O)C[C@H](NC(=O)[C@H](C)NC(=O)[C@@H](NC(=O)OCc1ccccc1)C(C)C)C(=O)CF [z-VAD-FMK] (Cbz-Val-Ala-Asp(OMe)-CH2F)
effect on γTriDAP-induced cell death [3]: abrogated | effect on γTriDAP-induced apoptosis [3]: blocked γTriDAP-induced apoptosis nearly completely

CC/C(=C(\c1ccccc1)c1ccc(OCCN(C)C)cc1)c1ccccc1 [tamoxifen, reference compound]
effect on γTriDAP-induced cell death ([2]; tamoxifen prior to γTriDAP/CHX, MCF-7 cell lines (FIG. 12B)): partially blocked | effect on estrogen-induced proliferation [13]: blocked

CC(=O)N[C@H]1C(O)O[C@H](CO)[C@@H](O)[C@@H]1O[C@H](C)C(=O)N[C@@H](C)C(=O)N[C@H](CCC(=O)O)C(N)=O (mixture of isomers) [MDP, muramyl dipeptide]
apoptosis [14]: did not undergo increased apoptosis | IL-8 secretion [15]: did result in IL-8 secretion | apoptosis [16]: effective at inducing high levels of apoptosis
